According to patent US6596863B2, “Medical composition containing nitroetheneamine Derivative or salt there of as active constituent” (Ishihara Sangyo Kaisha, Ltd., priority 1998, dated 2003):
Read-outs that look alike come from different tables or passages of the source.

Experiments:
[1] = biological target: T1, human MMP-9 (gelatinase B) (Homo sapiens, UniProt P14780); test: Inhibition activity against human MMP-9 (gelatinase B), fluorescent peptide substrate; format: biochemical
T1 construct: endogenous in cells; host or cells: HT1080 human fibrosarcoma cells (ATCC CCL-121), PMA-stimulated; enzyme purified from the culture supernatant
T1 sequence (P14780 107-707 limits assumed): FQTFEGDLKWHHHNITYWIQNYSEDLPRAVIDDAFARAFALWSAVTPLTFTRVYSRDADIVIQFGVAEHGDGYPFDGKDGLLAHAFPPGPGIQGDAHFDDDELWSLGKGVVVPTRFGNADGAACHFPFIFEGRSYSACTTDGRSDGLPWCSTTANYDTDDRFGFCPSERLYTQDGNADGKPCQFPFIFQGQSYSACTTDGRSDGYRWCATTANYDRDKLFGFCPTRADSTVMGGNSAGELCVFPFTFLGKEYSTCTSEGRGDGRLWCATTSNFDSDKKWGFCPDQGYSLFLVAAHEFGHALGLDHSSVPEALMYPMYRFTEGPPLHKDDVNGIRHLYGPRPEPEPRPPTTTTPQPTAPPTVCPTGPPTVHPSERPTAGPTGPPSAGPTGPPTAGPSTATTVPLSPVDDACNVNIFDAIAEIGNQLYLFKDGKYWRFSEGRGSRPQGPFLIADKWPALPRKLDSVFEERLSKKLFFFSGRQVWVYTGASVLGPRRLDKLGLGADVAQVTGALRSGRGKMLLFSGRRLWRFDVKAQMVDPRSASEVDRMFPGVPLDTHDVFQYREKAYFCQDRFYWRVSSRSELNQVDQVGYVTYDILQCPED
Method: Human MMP-9 (gelatinase B) was purified by the following method from a culture supernatant of HT1080 cells (human fibrosarcoma).
2.5×10^6 HT1080 cells (ATCC CCL-121, purchased from Dainippon Seiyaku) were inoculated to a tissue culture dish (Code No. 3020-100, manufactured by Iwaki Glass Co., Ltd.) having a diameter of 10 cm and containing 10 ml of Dulbecco's Modified Eagle Medium (DME, No. D-5648, manufactured by Sigma Co.) containing 10% fetal bovine serum (FBS: REHATUIN™, Code No. 1020-90, manufactured by Intergen Co.) and cultured for 72 hours at 37° C. in an atmosphere comprising 5% of CO2 and 95% of air (Carbon Dioxide Incubator LNA-122D Model, manufactured by Tabai Co.). Then, the medium was changed to 10 ml of a DME culture medium containing no FBS, and phorbol 12-myristate 13-acetate (PMA, code No. 163-114851, manufactured by Wako Pure Chemical Industries, Ltd.) was added so that the final concentration became 10 ng/ml. Under the same conditions, the culturing was carried out for further 20 hours, whereupon the culture supernatant was collected and subjected to cool centrifugation at 4° C. for 5 minutes (cool centrifugal separator, manufactured by Hitachi) to remove cell fragments.
The pH of a conditioned medium (50 ml) containing MMP-9, thus prepared, was adjusted to 8.0 with 0.2N NaOH. […] Namely, the above-mentioned conditioned medium was passed through DEAE-Sephacel (manufactured by Pharmacia, gel volume: about 35 ml) preliminarily equilibrated with 50 mM Tris-HCl, pH 8.0 (A buffer), and a non-adsorption fraction was collected. Then, it was added to Dye Matrix Gel Green A (manufactured by Amicon Co., gel volume: about 6 ml) preliminarily equilibrated with 50 mM Tris-HCl, pH 7.5/10 MM CaCl2/0.05% Brij 35/0.02% NaN3 (B buffer) and thoroughly washed with the same buffer, whereupon the adsorbed enzyme was eluted with a 1M NaCl-containing B buffer. About 7.5 ml of the eluted fraction was diluted twice with the B buffer and added to Gelatin-Sepharose 4B (manufactured by Pharmacia, gel volume: about 6 ml) preliminarily equilibrated with a 0.5 M NaCl-containing B buffer. It was thoroughly washed with a 0.5M NaCl-containing B buffer, and eluted with the B buffer containing 10% of dimethylsulfoxide (DMSO) and 0.5 M of NaCl. 5.5 ml of the eluted fraction was dialyzed against a 0.1 M NaCl-containing B buffer to obtain 5.2 ml of a purified enzyme solution. The purified MMP-9 standard product was confirmed to have a single band of 92 kDa by a protein staining by SDS electrophoresis, and further, it was confirmed to have an adequate gelatin decomposing activity by gelatinzymography (carried out in accordance with a method by Howard E. W. et al; Journal Biological Chemistry, Vol. 266, 13064-13069, 1991) and to have an adequate substrate decomposing activity by the after-mentioned measurement employing a fluorescent peptide substrate specific to MMP.
The inhibition activity against human MMP-9 was measured by the following method in accordance with the method by C. G. Knight et al (FEBS Letters, Vol, 296, 263-266, 1992) employing a fluorescent peptide substrate (7-methoxycoumarin-4-yl)Acetyl-Pro-Leu-Gly-Leu-(3-[2,4-dinitrophenyl]—Ala—Arg-NH2, Code 3163-VC, manufactured by Peptide Institute, Inc.
Further, as the case requires, commercially available human MMP-9 purified enzyme (No. YU-18003, manufactured by Kabushiki Kaisha Yagai Chuo Kenkyusho; used in a final concentration of from 0.0125 to 0.025 unit/ml, No. CC079, manufactured by Chemicon International, Inc.; used in a final concentration of 0.2 μg/ml) was used for the tests. […]

[2] = compounds of the formula (I), 1st measurement, read-out: MMP-9 inhibition activities IC50, 1st
[3] = compounds of the formula (I), 2nd measurement, read-out: MMP-9 inhibition activities IC50, 2nd
[4] = compounds of the formula (I), average of 1st and 2nd (or single measurement), read-out: MMP-9 inhibition activities IC50, Average
[5] = intermediates, compounds of the formula (IV), 1st measurement, read-out: MMP-9 inhibition activities IC50, 1st
[6] = intermediates, compounds of the formula (IV), 2nd measurement, read-out: MMP-9 inhibition activities IC50, 2nd
[7] = intermediates, compounds of the formula (IV), average of 1st and 2nd (or single measurement), read-out: MMP-9 inhibition activities IC50, Average

Structure (SMILES)	melting point	IC50 [1, 2]	IC50 [1, 3]	IC50 [1, 4]	IC50 [1, 5]	IC50 [1, 6]	IC50 [1, 7]
CNC(=C[N+](=O)[O-])NN=Cc1ccc2ccccc2c1 [compound 135]	190 °C (dec.)	28.2 µM	20.4 µM	24.3 µM	–	–	–
NNC(=C[N+](=O)[O-])NCc1ccc(C(F)(F)F)cc1 [compound 78]	162 °C	44.1 µM	36 µM	40.1 µM	–	–	–
CCOC(=O)c1ccc(NC(=C[N+](=O)[O-])SC)cc1 [Intermediate 50]	116 to 123 °C	–	–	–	33.9 µM	25.3 µM	29.6 µM
NNC(=C[N+](=O)[O-])NCc1cccc(C(F)(F)F)c1 [compound 77]	155 °C	41.4 µM	35.2 µM	38.3 µM	–	–	–
CSC(=C[N+](=O)[O-])Nc1ccc(F)cc1 [Intermediate 21]	156 °C	–	–	–	31.6 µM	54.4 µM	43 µM
CNC(=C[N+](=O)[O-])NNc1c([N+](=O)[O-])c(C)nn1C [Compound No. 30]	164 °C (dec.)	11.3 µM	17.5 µM	14.4 µM	–	–	–
CNC(=C[N+](=O)[O-])NNc1nc(-c2ccccc2)nc2ccccc12 [compound 148]	272 °C (dec.)	33.5 µM	21.7 µM	27.6 µM	–	–	–
CNC(=C[N+](=O)[O-])NNc1ccc([N+](=O)[O-])cc1 [compound 13]	186 °C (dec.)	20.1 µM	16.1 µM	18.1 µM	–	–	–
CNC(=C[N+](=O)[O-])NNC(O)C(F)(F)F (stereo not shown) [compound 23]	144 to 145 °C	42.5 µM	54.8 µM	48.7 µM	–	–	–
CNC(=C[N+](=O)[O-])NNc1cc(C(F)(F)F)cc(Oc2ccccc2)n1 [compound 126]	141 °C (dec.)	29.4 µM	21.8 µM	25.6 µM	–	–	–
CSC(=C[N+](=O)[O-])NC1CC1 [Intermediate 2]	101.5 to 106 °C	–	–	–	31.4 µM	59.9 µM	45.7 µM
CNC(=C[N+](=O)[O-])NN=C(C)c1ccccn1 [compound 33]	170 °C (dec.)	30.6 µM	31.9 µM	31.8 µM	–	–	–
CNC(=C[N+](=O)[O-])NNc1cc(C(F)(F)F)cc(OCc2ccco2)n1 [compound 120]	154 °C (dec.)	39.8 µM	39.4 µM	39.6 µM	–	–	–
CNC(=C[N+](=O)[O-])NNc1ncccn1 [compound 45]	182 to 183 °C (dec.)	33.8 µM	26.3 µM	30.1 µM	–	–	–
CNC(=C[N+](=O)[O-])NN=Cc1ccc([N+](=O)[O-])cc1 [compound 138]	232 °C (dec.)	22.3 µM	15.7 µM	19 µM	–	–	–

Further molecules by falling IC50 [1, 2], results first:

melting point	IC50 [1, 2]	IC50 [1, 3]	IC50 [1, 4]	IC50 [1, 5]	IC50 [1, 6]	IC50 [1, 7]	Structure (SMILES)
161 to 162 °C	26.6 µM	24.5 µM	25.6 µM	–	–	–	CNC(=C[N+](=O)[O-])NNc1cc(C(F)(F)F)cc(C)n1 [compound 27]
175 °C (dec.)	25.7 µM	23 µM	24.3 µM	–	–	–	NNC(=C[N+](=O)[O-])Nc1cccnc1 [compound 50]
176 °C (dec.)	25.3 µM	30 µM	27.7 µM	–	–	–	NNC(=C[N+](=O)[O-])NCc1ccncc1 [compound 55]
153 °C (dec.)	20.5 µM	25.3 µM	22.9 µM	–	–	–	NNC(=C[N+](=O)[O-])Nc1ccccc1 [compound 87]
210 °C (dec.)	20.4 µM	22.4 µM	21.4 µM	–	–	–	CNC(=C[N+](=O)[O-])NN=Cc1ccc(C(=O)O)cc1 [compound 142]
167 °C (dec.)	20 µM	10.6 µM	15.3 µM	–	–	–	CNC(=C[N+](=O)[O-])NNc1cc(C(F)(F)F)cc(OCC2CC2)n1 [compound 184]
179 °C (dec.)	19.9 µM	18.1 µM	19 µM	–	–	–	CNC(=C[N+](=O)[O-])NN=Cc1ccc2c(c1)OCCO2 [compound 141]
210 °C (dec.)	18.4 µM	29.4 µM	23.9 µM	–	–	–	CNC(=C[N+](=O)[O-])NNc1ccnc2cc(Cl)ccc12 [compound 146]
159 to 160 °C	18.3 µM	26.6 µM	22.5 µM	–	–	–	CNC(=C[N+](=O)[O-])NN=Cc1ccccc1 [compound 18]
140 to 143 °C	15.4 µM	20.6 µM	18 µM	–	–	–	NNC(=C[N+](=O)[O-])NCc1ccccc1 [compound 92]
168 °C (dec.)	14.8 µM	11.4 µM	13.1 µM	–	–	–	CNC(=C[N+](=O)[O-])NNS(=O)(=O)c1cccc2ccccc12 [compound 150]
199 °C (dec.)	13.7 µM	19.1 µM	16.4 µM	–	–	–	CNC(=C[N+](=O)[O-])NN=C(C)c1ccncc1 [compound 38]
94 °C	11.1 µM	–	11.1 µM	–	–	–	CNC(=C[N+](=O)[O-])NNc1cc(C(F)(F)F)cc(OCCSC)n1 [compound 189]
169 °C (dec.)	10.7 µM	6.1 µM	8.4 µM	–	–	–	CCCCOc1cc(C(F)(F)F)cc(NNC(=C[N+](=O)[O-])NC)n1 [compound 177]
170 °C (dec.)	10.5 µM	–	10.5 µM	–	–	–	CNC(=C[N+](=O)[O-])NNc1cc(C(F)(F)F)cc(OCCOC(C)(C)C)n1 [compound 193]
175 to 178 °C (dec.)	9.4 µM	–	9.4 µM	–	–	–	COCCNC(=C[N+](=O)[O-])NNc1cc(C(F)(F)F)cc(Cl)n1 [compound 160]
170 to 173 °C (dec.)	7.9 µM	–	7.9 µM	–	–	–	O=[N+]([O-])C=C(NNc1cc(C(F)(F)F)cc(Cl)n1)NS(=O)(=O)c1ccccc1 [compound 159]
188 to 189 °C	7.8 µM	–	7.8 µM	–	–	–	CNC(=C[N+](=O)[O-])NN=Cc1ccc(C(F)(F)F)cc1 [compound 166]
197 °C (dec.)	7.1 µM	7.3 µM	7.2 µM	–	–	–	CNC(=C[N+](=O)[O-])NNc1cccc(C(F)(F)F)n1 [compound 168]
165 °C (dec.)	2 µM	3 µM	2.5 µM	–	–	–	CNC(=C[N+](=O)[O-])NNc1cc(C(F)(F)F)cc(C)n1 [compound 131]
221 °C (dec.)	1.7 µM	4.1 µM	2.9 µM	–	–	–	CNC(=C[N+](=O)[O-])NNc1cccc(Cl)n1 [compound 145]
